One assay deals with APOBEC3A (A3A) (Homo sapiens, UniProt P31941). As to the kind of experiment: fluorescence ssDNA C-to-U deaminase assay. The format is biochemical.
A further assay addresses APOBEC3G (A3G) (Homo sapiens, UniProt Q9HC16). Briefly: fluorescence ssDNA C-to-U deaminase assay. The format is biochemical.

Chain of APOBEC3A (A3A) (P31941 whole entry): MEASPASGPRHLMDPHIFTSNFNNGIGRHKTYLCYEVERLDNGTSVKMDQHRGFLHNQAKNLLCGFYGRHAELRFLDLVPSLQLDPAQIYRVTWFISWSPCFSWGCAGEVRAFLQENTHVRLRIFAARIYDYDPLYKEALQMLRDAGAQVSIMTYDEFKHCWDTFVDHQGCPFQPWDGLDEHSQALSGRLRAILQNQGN
Chain of APOBEC3G (A3G) (Q9HC16 whole entry): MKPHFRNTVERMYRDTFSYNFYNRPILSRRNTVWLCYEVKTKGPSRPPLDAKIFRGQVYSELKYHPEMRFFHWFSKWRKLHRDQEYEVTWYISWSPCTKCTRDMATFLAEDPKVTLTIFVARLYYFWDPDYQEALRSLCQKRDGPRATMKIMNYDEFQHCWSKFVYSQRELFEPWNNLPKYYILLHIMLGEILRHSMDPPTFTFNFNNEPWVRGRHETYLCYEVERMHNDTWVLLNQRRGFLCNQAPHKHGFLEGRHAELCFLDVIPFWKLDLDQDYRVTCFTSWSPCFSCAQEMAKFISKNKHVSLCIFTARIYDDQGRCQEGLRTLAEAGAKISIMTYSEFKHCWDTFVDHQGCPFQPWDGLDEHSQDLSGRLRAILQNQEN

With `Cc1nnc(SCc2ccccc2)n1N` [compound 11, 3-(benzylthio)-5-methyl-1,2,4-triazol-4-amine], the IC50 against APOBEC3A (A3A) is > 100 µM. Take `S=c1[nH]ncn1N=Cc1ccc(Br)cc1` [compound 1, 4-((4-bromobenzylidene)amino)-1,2,4-triazole-3-thiol]: the IC50 is 4.3 ± 1.1 µM against APOBEC3G (A3G) and > 100 µM at APOBEC3A (A3A). Turning to `Cc1nnc(O)n1N` [compound 7, 4-amino-5-methyl-1,2,4-triazol-3-ol], on APOBEC3A (A3A), the IC50 is > 100 µM. In the case of `Nn1cnnc1S` [compound 4, 4-amino-1,2,4-triazole-3-thiol], the IC50 on APOBEC3G (A3G) and on APOBEC3A (A3A) was > 100 µM throughout. Consider `COc1ccc(C=Nn2c(C)nnc2S)cc1` [compound 8, 4-((4-methoxybenzylidene)amino)-5-methyl-1,2,4-triazole-3-thiol], for which the values for the half-maximal inhibitory concentration (IC50) at APOBEC3G (A3G) and against APOBEC3A (A3A) were 3.9 ± 1.2 µM and > 100 µM, respectively. On to `Cc1nnc(S)n1N` [compound 5, 4-amino-5-methyl-1,2,4-triazole-3-thiol], for which the IC50 against APOBEC3G (A3G) is 6.1 ± 1.1 µM; against APOBEC3A (A3A), > 100 µM. Regarding `Cc1nnc(S)n1NC(=O)c1ccccc1` [compound 9, N-(3-mercapto-5-methyl-1,2,4-triazol-4-yl)benzamide], the IC50 was 8.2 ± 1.2 µM against APOBEC3G (A3G) and > 100 µM at APOBEC3A (A3A).

Broadly, the IC50 is the concentration at which inhibition is half-maximal. A high value points to weaker potency.

The values above are taken from publication PMC3786134 (ChemMedChem, 2012).
